Target: Glycogen synthase kinase-3 beta (Homo sapiens, UniProt P49841)
Test: Kinase-Glo Assay
Details: 30 °C
Procedure: The final DMSO concentration in the reaction mixture was <1%. After incubation at 30 °C for 30 min, the enzymatic reaction was quenched with 40 μL of Kinase-Glo reagent. Luminescence was recorded after 10 min using Infinite F200® PRO multimode reader (Tecan Group Ltd., Männedorf, Switzerland). The activity is proportional to the difference of the total and consumed ATP.

Chain of Glycogen synthase kinase-3 beta (P49841 whole entry): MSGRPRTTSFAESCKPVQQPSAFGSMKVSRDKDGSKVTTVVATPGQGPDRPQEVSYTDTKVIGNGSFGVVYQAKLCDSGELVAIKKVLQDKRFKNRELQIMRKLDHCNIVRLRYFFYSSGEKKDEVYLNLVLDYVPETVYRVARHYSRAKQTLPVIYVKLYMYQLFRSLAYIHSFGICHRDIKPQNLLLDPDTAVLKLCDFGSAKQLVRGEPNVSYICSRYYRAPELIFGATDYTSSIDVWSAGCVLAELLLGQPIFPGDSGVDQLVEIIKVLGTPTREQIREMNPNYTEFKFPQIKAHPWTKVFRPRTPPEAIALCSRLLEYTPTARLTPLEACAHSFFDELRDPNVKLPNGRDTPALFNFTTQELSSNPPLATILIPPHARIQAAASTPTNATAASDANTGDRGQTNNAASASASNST

SMILES	IC50 [µM]
O=c1oc2cccnc2n1Cc1cn(-c2ccc(Cl)cc2Cl)nn1 [3-((1-(2,4-dichlorophenyl)-1H-1,2,3-triazol-4-yl)methyl)oxazolo[4,5-b]pyridin-2(3H)-one (4r)]	10.8
O=c1oc2cccnc2n1Cc1cn(-c2cccnc2Cl)nn1 [3-((1-(2-chloropyridin-3-yl)-1H-1,2,3-triazol-4-yl)methyl)oxazolo[4,5-b]pyridin-2(3H)-one (4t)]	11
O=c1oc2cccnc2n1Cc1cn(-c2ccc(Cl)c(Cl)c2)nn1 [3-((1-(3,4-dichlorophenyl)-1H-1,2,3-triazol-4-yl)methyl)oxazolo[4,5-b]pyridin-2(3H)-one (4s)]	12.6
Cc1ccc(-n2cc(Cn3c(=O)oc4cccnc43)nn2)cc1C [3-((1-(3,4-dimethylphenyl)-1H-1,2,3-triazol-4-yl)methyl)oxazolo[4,5-b]pyridin-3H)one (4j)]	40.1
O=c1oc2cccnc2n1Cc1cn(-c2cccc(Cl)c2)nn1 [3-((1-(3-chlorophenyl)-1H-1,2,3-triazol-4-yl)methyl)oxazolo[4,5-b]pyridin-2(3H)-one (4k)]	28.4
O=c1oc2cccnc2n1Cc1cn(-c2cccc([N+](=O)[O-])c2)nn1 [3-((1-(3-nitrophenyl)-1H-1,2,3-triazol-4-yl)methyl)oxazolo[4,5-b]pyridin-2(3H)-one (4o)]	15.6
CCOc1ccc(-n2cc(Cn3c(=O)oc4cccnc43)nn2)cc1 [3-((1-(4-ethoxyphenyl)-1H-1,2,3-triazol-4-yl)methyl)oxazolo[4,5-b]pyridin-2(3H)-one (4u)]	37.3
CCc1ccc(-n2cc(Cn3c(=O)oc4cccnc43)nn2)cc1 [3-((1-(4-ethylphenyl)-1H-1,2,3-triazol-4-yl)methyl)oxazolo[4,5-b]pyridin-2(3H)-one (4h)]	12.7
O=c1oc2cccnc2n1Cc1cn(-c2ccc([N+](=O)[O-])cc2)nn1 [3-((1-(4-nitrophenyl)-1H-1,2,3-triazol-4-yl)methyl)oxazolo[4,5-b]pyridin-2(3H)-one (4p)]	17.1
CC(C)(C)c1ccc(-n2cc(Cn3c(=O)oc4cccnc43)nn2)cc1 [3-((1-(4-tert-butylphenyl)-1H-1,2,3-triazol-4-yl)methyl)oxazolo[4,5-b]pyridin-2(3H)-one (4m)]	23.5

Compounds with a lower IC50, results first:

IC50 [µM]	SMILES
0.31	O=c1oc2cccnc2n1Cc1cn(-c2ccccc2Br)nn1 [3-((1-(2-bromophenyl)-1H-1,2,3-triazol-4-yl)methyl)oxazolo[4,5-b]pyridin-2(3H)-one (4f)]
0.19	O=c1oc2cccnc2n1Cc1cn(-c2ccccc2Cl)nn1 [3-((1-(2-chlorophenyl)-1H-1,2,3-triazol-4-yl)methyl)oxazolo[4,5-b]pyridin-2(3H)-one (4g)]
0.37	O=c1oc2cccnc2n1Cc1cn(-c2ccccc2F)nn1 [3-((1-(2-fluorophenyl)-1H-1,2,3-triazol-4-yl)methyl)oxazolo[4,5-b]pyridin-2(3H)-one (4i)]
0.74	COc1ccccc1-n1cc(Cn2c(=O)oc3cccnc32)nn1 [3-((1-(2-methoxyphenyl)-1H-1,2,3-triazol-4-yl)methyl)oxazolo[4,5-b]pyridin-2(3H)-one  (4q)]
8.64	O=c1oc2cccnc2n1Cc1cn(-c2ccc(Br)cc2)nn1 [3-((1-(4-bromophenyl)-1H-1,2,3-triazol-4-yl)methyl)oxazolo[4,5-b]pyridin-2(3H)-one (4b)]
5.73	O=c1oc2cccnc2n1Cc1cn(-c2ccc(Cl)cc2)nn1 [3-((1-(4-chlorophenyl)-1H-1,2,3-triazol-4-yl)methyl)oxazolo[4,5-b]pyridin-2(3H)-one (4c)]
2.49	O=c1oc2cccnc2n1Cc1cn(-c2ccc(F)cc2)nn1 [3-((1-(4-fluorophenyl)-1H-1,2,3-triazol-4-yl)methyl)oxazolo[4,5-b]pyridin-2(3H)-one (4e)]
8.45	COc1ccc(-n2cc(Cn3c(=O)oc4cccnc43)nn2)cc1 [3-((1-(4-methoxyphenyl)-1H-1,2,3-triazol-4-yl)methyl)oxazolo[4,5-b]pyridin-2(3H)-one (4l)]
0.23	O=c1oc2cccnc2n1Cc1cn(-c2cccnc2)nn1 [3-((1-(pyridin-3-yl)-1H-1,2,3-triazol-4-yl)methyl)oxazolo[4,5-b]pyridin-2(3H)-one (4d)]
0.65	Cc1ccccc1-n1cc(Cn2c(=O)oc3cccnc32)nn1 [3-((1-o-tolyl-1H-1,2,3-triazol-4-yl)methyl)oxazolo[4,5-b]pyridin-2(3H)-one (4n)]
10.1	O=c1oc2cccnc2n1Cc1cn(-c2ccccc2)nn1 [3-((1-phenyl-1H-1,2,3-triazol-4-yl)methyl)oxazolo[4,5-b]pyridin-2(3H)-one (4a)]

— BindingDB's records for doi:10.1111/cbdd.12724 (Hamdard University (Jamia Hamdard), 2016)
